# In publication PMC8041284, “Tunable Methacrylamides for Covalent Ligand Directed Release Chemistry” (Journal of the American Chemical Society, 2021):
# Read-outs that look alike come from different tables or passages of the source. Where a SMILES comes first, the peptide text is derived from it. [ ]: non-standard residue; d: D form. Nle = CCCC[C@H](N)C(=O)O
# Target: BTK (Homo sapiens, UniProt Q06187)
# Experiment: biochemical
# [1] = read-out: BTK inhibition (%), 0.75 uM BTK, […] probe 3l, 15 min preincubation
# Chain of BTK (Q06187 402-655 limits assumed): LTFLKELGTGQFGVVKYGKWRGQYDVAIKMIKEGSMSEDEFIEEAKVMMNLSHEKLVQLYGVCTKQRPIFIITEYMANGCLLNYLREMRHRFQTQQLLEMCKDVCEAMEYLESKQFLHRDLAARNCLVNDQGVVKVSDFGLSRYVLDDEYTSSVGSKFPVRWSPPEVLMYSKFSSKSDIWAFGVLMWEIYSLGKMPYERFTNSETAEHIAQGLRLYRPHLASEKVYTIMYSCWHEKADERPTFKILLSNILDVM
inhibition at 10 µM [1],Structure (SMILES),inhibition at 10 µM (read-out: BTK inhibition (%))
0%,Cc1cc(/C(O)=C2\C(=O)C(=O)N(CCCN3CCOCC3)C2c2ccncc2)ccc1OCc1ccccc1 (stereo not drawn) [PCM-0215180],
-7%,COc1cc(CCC(=O)CC(=O)CCc2ccc(O)c(OC)c2)ccc1O [PCM-0216226],
72.4%,COc1ccc(-c2cc(=O)c3c(O)c(OC)c(O)cc3o2)cc1OC [PCM-0214985],
-8.5%,O=C(Nc1ccc(O)c(C(=O)O)c1)c1cccc(NC(=O)c2ccco2)c1 [PCM-0215939],
10.9%,COC(c1ccccc1)(c1ccccc1)[C@H](Oc1nc(C)cc(C)n1)C(=O)O [PCM-0095259],
8.5%,COc1cc(-c2oc3cc(O)cc(O)c3c(=O)c2O[C@@H]2O[C@H](CO[C@@H]3O[C@@H](C)[C@H](O)[C@@H](O)[C@H]3O)[C@@H](O)[C@H](O)[C@H]2O)ccc1O [PCM-0216322],
9.3%,CN1C[C@@H]2c3ccccc3Oc3ccc(Cl)cc3[C@H]2C1 [PCM-0095064],
26.3%,O=c1cc(-c2ccc(O)cc2)oc2c([C@@H]3O[C@H](CO)[C@@H](O)[C@H](O)[C@H]3O)c(O)cc(O)c12 [PCM-0216454],
5.4%,O=C(Cc1ccccc1)Nc1nnc(CCSCCc2nnc(NC(=O)Cc3ccccc3)s2)s1 [PCM-0215483],
0.8%,Cc1ccc(Cl)cc1N(CC(=O)Nc1c(F)cccc1F)S(C)(=O)=O [PCM-0215291],
2.3%,COc1cccc(-c2cc(F)ccc2[C@H]2Cc3nc(N)nc(C)c3C(=O)N2)n1 [PCM-0215352],
2.1%,O=C(Nc1cccnc1)c1cc(-c2ccnc(F)c2)ccc1OCc1ccccc1 [PCM-0213433],
63.8%,O=c1cc(-c2ccc(O)cc2)oc2cc(O)cc(O)c12 [PCM-0064643],
0.8%,O=C(O)CCn1c(O)c(C2=c3cc(Cl)ccc3=NC2=O)sc1=S [PCM-0215854],
31.7%,O=C(Nc1nc2cccc(-c3ccc(CN4CCS(=O)(=O)CC4)cc3)n2n1)C1CC1 [PCM-0215361],
36.6%,COc1cc2nccc(Oc3ccc(NC(=O)NC4CC4)c(Cl)c3)c2cc1C(N)=O [PCM-0095014],
31.9%,COc1cc2c(cc1Cc1cccc(Cl)c1F)c(=O)c(C(=O)O)cn2[C@H](CO)C(C)C [PCM-0095274],
64.8%,COc1cc(N2CCC(N(C)C)CC2)ccc1Nc1ncc(Cl)c(Nc2ccccc2P(C)(C)=O)n1 [PCM-0215177],

# Second part, the compound before the results:
Structure (SMILES),inhibition at 10 µM [1],inhibition at 10 µM (read-out: BTK inhibition (%))
CC1(C)CCC[C@](C)([C@H]2CC[C@]3(C)[C@@H]2[C@H](O)C[C@@H]2[C@@]4(C)CC[C@H](O)C(C)(C)[C@@H]4[C@H](O)C[C@]23C)O1 [PCM-0215005],-2.8%,
CCCOc1ccc2c(c1)CC[C@@H]1[C@@H]2CC[C@]2(C)[C@@H](OC)CC[C@@H]12 [PCM-0214906],-24.1%,
CCC1(c2ccccc2)C(=O)NCNC1=O [PCM-0065590],-17.1%,
CCCC[C@@H](C=O)NC(=O)[C@H](CC(C)C)NC(=O)[C@H](CC(C)C)NC(C)=O [PCM-0215374] (Ac-Leu-Leu-[Nle]-aldehyde),18.5%,
Cc1cc(SCc2sc(-c3ccc(C(F)(F)F)c(F)c3)nc2C)ccc1OCC(=O)O [PCM-0095608],-5.4%,
CC1(C)C(=O)N(c2ccc(C#N)c(C(F)(F)F)c2)C(=O)N1CCCCO [PCM-0216095],,11.6%
COc1ccc(-n2c(SCCCN3C(=O)c4cccc5cccc(c45)C3=O)nnc2-c2ccncc2)cc1 [PCM-0215315],-9.3%,
CC(C)=C[C@H]1C[C@](C)(O)[C@@H]2[C@H]3CC[C@@H]4[C@@]5(C)CC[C@H](O[C@@H]6OC[C@H](O)[C@H](O[C@@H]7O[C@H](CO)[C@@H](O)[C@H](O)[C@H]7O[C@@H]7OC[C@@H](O)[C@H](O)[C@H]7O)[C@H]6O[C@@H]6O[C@@H](C)[C@H](O)[C@@H](O)[C@H]6O)C(C)(C)[C@@H]5CC[C@@]4(C)[C@@]34CO[C@@]2(C4)O1 [PCM-0216470],10%,
CCCCCCCCCCCCN1CCCCCC1=O [PCM-0216037],-2.3%,
CN1CCN(c2ccc(Nc3ncc4cc(C#N)c(=O)n(C5CCCC5)c4n3)cc2)CC1 [PCM-0215612],19.3%,
C=C1CC[C@H]2C(=C)CC[C@H]3C(=C)C(=O)O[C@@H]3[C@@H]12 [PCM-0214878],32.7%,
CCC1(O)C(=O)OCc2c1cc1n(c2=O)Cc2cc3cc(O)ccc3nc2-1 (stereo not drawn) [PCM-0094873],,6.2%
C#C[C@]1(O)CC[C@H]2[C@@H]3CCc4cc(O)ccc4[C@H]3CC[C@@]21C [PCM-0086269],26.5%,
Clc1ccc2c(N3CCN(CCCN4CCN(c5ccnc6cc(Cl)ccc56)CC4)CC3)ccnc2c1 [PCM-0216142],-5.1%,
Fc1cc(F)c2c(c1)[C@H]1C=CC[C@H]1C(c1cccnc1)N2 (stereo partly drawn) [PCM-0215243],-18.5%,
Cn1cc(C(=O)[C@@H]2CCc3nc[nH]c3C2)c2ccccc21 [PCM-0214919],-3.1%,
Cc1ccc2nc(CN(CCN(Cc3nc4ccc(C)cc4[nH]3)Cc3nc4ccc(C)cc4[nH]3)Cc3nc4ccc(C)cc4[nH]3)[nH]c2c1 [PCM-0215616],95.8%,
Nc1ccn(C[C@@H](CO)OCP(=O)(O)O)c(=O)n1 [PCM-0095189],-12.8%,
